This is an account of results in ChEMBL document CHEMBL5212743, “Selectivity Literature for EUbOPEN Chemogenomics Library wave 3” (2023).

The test system of assay [1] is Hepatocyte growth factor receptor (Homo sapiens), P08581 [Y1235D]. As to the kind of experiment: (§1) Selectivity interaction (KinomeScan (DiscoverX)) EUB0000702a MET. To be noted: at 1 µM.
The subject of assay [2] is Hepatocyte growth factor receptor (Homo sapiens), P08581 [M1250T]. The description is as §1. To be noted: at 1 µM.
Assay [3] deals with Serine/threonine-protein kinase TAO2 (Homo sapiens) (UniProt Q9UL54). In words: Selectivity interaction (KinomeScan (DiscoverX)) EUB0000178b TAOK2. The conditions noted are these: at 1 µM.
For assay [4], the target named is T1, Tyrosine-protein kinase JAK3 (Homo sapiens) (UniProt P52333).
T1 sequence (whole entry): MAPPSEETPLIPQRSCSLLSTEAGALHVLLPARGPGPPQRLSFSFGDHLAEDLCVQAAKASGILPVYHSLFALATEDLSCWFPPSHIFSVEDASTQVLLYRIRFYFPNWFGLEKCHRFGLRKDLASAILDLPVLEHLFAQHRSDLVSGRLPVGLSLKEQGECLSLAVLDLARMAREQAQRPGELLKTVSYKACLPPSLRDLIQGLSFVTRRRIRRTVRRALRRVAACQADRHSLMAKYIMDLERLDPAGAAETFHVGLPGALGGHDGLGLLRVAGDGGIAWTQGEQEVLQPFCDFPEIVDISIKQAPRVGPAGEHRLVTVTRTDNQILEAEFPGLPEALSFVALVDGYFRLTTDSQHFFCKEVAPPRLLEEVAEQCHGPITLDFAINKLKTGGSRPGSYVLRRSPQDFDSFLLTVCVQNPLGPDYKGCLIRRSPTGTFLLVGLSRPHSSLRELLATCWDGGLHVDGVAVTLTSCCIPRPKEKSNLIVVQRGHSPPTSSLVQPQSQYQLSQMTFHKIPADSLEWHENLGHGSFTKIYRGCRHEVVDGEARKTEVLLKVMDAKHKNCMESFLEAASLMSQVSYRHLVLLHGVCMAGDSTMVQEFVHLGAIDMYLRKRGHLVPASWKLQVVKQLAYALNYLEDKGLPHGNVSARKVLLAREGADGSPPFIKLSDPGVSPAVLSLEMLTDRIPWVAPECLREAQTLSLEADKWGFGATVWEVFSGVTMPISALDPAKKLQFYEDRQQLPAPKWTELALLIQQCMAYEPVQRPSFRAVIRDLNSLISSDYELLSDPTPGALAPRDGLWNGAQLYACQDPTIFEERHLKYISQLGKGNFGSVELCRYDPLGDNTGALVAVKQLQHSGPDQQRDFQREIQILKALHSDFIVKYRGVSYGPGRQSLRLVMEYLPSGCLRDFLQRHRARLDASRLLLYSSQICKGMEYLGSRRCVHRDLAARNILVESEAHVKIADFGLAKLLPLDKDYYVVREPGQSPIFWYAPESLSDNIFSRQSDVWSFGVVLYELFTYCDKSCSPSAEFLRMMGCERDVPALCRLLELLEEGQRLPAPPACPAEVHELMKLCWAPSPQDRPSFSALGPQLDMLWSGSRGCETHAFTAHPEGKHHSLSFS
As to the kind of experiment: Selectivity interaction (KinomeScan (DiscoverX)) EUB0000138c JAK3. To be noted: at 100 nM.

Assay [5] has as its target Macrophage colony-stimulating factor 1 receptor (Homo sapiens) (UniProt P07333). To be noted: at 1 µM.
The target of assay [6] is High affinity nerve growth factor receptor (Homo sapiens, UniProt P04629). The conditions noted are these: at 1 µM.
The target of assay [7] is T2, Dual specificity mitogen-activated protein kinase kinase 5 (Homo sapiens) (UniProt Q13163).
T2 sequence (whole entry): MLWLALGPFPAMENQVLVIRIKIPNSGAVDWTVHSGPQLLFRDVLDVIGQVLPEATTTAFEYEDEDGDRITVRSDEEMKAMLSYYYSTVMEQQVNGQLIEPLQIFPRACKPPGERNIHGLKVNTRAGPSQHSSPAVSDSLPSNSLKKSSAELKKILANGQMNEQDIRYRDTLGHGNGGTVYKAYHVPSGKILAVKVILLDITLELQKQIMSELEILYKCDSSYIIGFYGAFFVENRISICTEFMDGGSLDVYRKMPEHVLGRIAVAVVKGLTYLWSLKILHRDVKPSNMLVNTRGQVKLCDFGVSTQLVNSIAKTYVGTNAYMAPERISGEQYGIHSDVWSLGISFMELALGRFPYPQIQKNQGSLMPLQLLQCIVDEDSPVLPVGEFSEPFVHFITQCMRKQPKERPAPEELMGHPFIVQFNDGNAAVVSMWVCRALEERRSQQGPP
As to the kind of experiment: Selectivity interaction (KinomeScan (DiscoverX)) EUB0000305b MAP2K5. To be noted: CellTiter-Glo assay (Promega, proliferation in ACHN cells): IC50 = […] nM, https://www.sgc-ffm.uni-frankfurt.de/#!specificprobeove, at 100 nM. A general note: ATP-based viability assays read luminescence as a measure of living cells.

The target in assay [8] is Serine/threonine-protein kinase RIO3 (Homo sapiens) (UniProt O14730). In words: Selectivity interaction (KinomeScan (DiscoverX)) EUB0000698a RIOK3. The conditions noted are these: at 10 µM.
The target of assay [9] is Phosphatidylinositol 4-phosphate 5-kinase type-1 gamma (Homo sapiens) (UniProt O60331). As to the kind of experiment: Selectivity interaction (KinomeScan (DiscoverX)) EUB0000698a PIP5K1C. To be noted: at 10 µM.
For assay [10], the system named is ALK tyrosine kinase receptor (Homo sapiens), Q9UM73 [C1156Y]. As to the kind of experiment: Selectivity interaction (KinomeScan (DiscoverX)) EUB0000169b ALK. To be noted: at 1 µM.
The target of assay [11] is Serine/threonine-protein kinase PLK2 (Homo sapiens) (UniProt Q9NYY3). As to the kind of experiment: Selectivity interaction (KinomeScan (DiscoverX)) EUB0000169b PLK2. The conditions noted are these: at 1 µM.
Serine/threonine-protein kinase PLK2 (Homo sapiens), sequence (Q9NYY3 whole entry, looked up): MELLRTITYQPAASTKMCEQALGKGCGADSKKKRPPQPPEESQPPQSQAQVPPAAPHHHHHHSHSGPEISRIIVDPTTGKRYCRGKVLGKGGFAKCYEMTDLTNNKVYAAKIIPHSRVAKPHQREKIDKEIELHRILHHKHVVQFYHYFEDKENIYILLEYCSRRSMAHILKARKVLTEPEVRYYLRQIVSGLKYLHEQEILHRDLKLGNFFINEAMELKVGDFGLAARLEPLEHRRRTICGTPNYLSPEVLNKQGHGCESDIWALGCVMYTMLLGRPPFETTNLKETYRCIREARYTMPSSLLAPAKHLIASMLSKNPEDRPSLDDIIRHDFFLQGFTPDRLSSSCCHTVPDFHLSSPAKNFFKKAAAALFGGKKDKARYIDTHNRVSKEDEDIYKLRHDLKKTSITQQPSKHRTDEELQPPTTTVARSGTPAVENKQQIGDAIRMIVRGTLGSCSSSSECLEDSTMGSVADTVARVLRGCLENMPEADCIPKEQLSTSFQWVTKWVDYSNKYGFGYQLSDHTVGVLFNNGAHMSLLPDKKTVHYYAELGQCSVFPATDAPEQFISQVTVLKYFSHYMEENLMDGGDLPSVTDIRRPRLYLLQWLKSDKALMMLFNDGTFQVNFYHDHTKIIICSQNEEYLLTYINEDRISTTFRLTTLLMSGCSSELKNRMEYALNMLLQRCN

Hepatocyte growth factor receptor (Homo sapiens), P08581 [Y1235D], sequence (P08581 whole entry Y1235D): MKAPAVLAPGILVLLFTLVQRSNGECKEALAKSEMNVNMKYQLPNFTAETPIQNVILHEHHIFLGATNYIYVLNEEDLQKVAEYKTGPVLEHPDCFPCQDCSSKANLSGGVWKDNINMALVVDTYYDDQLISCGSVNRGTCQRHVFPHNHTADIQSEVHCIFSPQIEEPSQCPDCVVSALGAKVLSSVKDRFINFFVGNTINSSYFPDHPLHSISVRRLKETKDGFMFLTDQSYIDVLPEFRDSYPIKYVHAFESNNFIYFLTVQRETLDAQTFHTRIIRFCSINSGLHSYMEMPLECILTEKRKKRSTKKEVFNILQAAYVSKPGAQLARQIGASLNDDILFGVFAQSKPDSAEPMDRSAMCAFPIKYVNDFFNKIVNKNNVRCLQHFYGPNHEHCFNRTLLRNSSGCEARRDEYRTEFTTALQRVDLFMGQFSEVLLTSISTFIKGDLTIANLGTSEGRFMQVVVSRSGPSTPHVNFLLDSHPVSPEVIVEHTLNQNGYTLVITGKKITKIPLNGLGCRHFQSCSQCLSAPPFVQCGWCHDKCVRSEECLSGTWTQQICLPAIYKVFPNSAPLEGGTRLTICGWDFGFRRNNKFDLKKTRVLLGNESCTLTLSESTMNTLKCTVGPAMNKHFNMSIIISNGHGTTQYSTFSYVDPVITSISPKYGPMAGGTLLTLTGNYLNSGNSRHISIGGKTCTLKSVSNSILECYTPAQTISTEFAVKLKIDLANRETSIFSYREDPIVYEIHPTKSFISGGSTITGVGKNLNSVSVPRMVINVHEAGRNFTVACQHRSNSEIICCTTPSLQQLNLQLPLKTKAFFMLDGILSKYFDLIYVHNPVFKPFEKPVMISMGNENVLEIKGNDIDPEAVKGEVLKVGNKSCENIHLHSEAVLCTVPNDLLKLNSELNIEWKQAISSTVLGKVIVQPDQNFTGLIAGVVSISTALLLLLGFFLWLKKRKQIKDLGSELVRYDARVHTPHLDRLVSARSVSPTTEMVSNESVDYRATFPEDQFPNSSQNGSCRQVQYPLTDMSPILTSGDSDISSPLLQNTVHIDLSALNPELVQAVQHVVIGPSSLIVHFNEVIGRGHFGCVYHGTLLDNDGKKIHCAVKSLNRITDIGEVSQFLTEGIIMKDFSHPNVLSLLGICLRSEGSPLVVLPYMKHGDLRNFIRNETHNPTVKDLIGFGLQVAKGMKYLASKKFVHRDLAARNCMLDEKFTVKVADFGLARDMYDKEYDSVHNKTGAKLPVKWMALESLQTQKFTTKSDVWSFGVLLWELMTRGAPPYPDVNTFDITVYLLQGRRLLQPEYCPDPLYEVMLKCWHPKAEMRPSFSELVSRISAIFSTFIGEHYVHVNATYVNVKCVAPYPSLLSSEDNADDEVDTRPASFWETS
High affinity nerve growth factor receptor, sequence (P04629 whole entry, looked up): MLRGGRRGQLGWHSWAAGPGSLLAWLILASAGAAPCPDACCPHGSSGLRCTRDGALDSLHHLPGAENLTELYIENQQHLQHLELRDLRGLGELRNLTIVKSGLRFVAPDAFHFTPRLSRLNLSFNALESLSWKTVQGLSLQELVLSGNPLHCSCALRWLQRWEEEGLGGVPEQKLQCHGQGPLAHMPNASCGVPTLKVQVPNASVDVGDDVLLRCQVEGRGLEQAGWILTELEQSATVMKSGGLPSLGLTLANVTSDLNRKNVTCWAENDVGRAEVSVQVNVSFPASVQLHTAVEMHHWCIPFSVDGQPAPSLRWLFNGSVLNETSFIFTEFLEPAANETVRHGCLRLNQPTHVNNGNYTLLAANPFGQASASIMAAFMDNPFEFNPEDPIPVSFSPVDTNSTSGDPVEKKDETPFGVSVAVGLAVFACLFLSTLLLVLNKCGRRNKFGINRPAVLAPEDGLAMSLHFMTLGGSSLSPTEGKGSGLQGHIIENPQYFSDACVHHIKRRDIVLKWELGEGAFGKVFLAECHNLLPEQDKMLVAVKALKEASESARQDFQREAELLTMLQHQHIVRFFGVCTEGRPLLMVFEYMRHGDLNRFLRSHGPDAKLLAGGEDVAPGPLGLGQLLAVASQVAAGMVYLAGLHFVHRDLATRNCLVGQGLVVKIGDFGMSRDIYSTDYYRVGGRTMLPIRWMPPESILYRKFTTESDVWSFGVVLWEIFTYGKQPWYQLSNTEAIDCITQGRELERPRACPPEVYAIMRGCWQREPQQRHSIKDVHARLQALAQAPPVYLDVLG
Serine/threonine-protein kinase RIO3 (Homo sapiens), sequence (O14730 whole entry): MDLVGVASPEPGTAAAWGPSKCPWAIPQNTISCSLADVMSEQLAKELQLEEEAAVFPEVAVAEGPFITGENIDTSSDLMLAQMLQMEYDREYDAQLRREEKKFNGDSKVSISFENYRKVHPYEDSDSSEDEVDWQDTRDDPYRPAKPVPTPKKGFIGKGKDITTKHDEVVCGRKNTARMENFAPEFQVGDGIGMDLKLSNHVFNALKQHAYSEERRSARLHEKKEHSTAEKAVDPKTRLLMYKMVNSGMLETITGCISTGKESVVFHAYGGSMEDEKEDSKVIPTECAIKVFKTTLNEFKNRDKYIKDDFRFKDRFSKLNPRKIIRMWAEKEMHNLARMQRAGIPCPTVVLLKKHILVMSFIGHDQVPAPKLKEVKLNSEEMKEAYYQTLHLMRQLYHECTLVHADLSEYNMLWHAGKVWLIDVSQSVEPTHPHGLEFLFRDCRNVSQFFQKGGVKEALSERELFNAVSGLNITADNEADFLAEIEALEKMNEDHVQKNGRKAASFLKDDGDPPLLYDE
Hepatocyte growth factor receptor (Homo sapiens), P08581 [M1250T], sequence (P08581 whole entry M1250T): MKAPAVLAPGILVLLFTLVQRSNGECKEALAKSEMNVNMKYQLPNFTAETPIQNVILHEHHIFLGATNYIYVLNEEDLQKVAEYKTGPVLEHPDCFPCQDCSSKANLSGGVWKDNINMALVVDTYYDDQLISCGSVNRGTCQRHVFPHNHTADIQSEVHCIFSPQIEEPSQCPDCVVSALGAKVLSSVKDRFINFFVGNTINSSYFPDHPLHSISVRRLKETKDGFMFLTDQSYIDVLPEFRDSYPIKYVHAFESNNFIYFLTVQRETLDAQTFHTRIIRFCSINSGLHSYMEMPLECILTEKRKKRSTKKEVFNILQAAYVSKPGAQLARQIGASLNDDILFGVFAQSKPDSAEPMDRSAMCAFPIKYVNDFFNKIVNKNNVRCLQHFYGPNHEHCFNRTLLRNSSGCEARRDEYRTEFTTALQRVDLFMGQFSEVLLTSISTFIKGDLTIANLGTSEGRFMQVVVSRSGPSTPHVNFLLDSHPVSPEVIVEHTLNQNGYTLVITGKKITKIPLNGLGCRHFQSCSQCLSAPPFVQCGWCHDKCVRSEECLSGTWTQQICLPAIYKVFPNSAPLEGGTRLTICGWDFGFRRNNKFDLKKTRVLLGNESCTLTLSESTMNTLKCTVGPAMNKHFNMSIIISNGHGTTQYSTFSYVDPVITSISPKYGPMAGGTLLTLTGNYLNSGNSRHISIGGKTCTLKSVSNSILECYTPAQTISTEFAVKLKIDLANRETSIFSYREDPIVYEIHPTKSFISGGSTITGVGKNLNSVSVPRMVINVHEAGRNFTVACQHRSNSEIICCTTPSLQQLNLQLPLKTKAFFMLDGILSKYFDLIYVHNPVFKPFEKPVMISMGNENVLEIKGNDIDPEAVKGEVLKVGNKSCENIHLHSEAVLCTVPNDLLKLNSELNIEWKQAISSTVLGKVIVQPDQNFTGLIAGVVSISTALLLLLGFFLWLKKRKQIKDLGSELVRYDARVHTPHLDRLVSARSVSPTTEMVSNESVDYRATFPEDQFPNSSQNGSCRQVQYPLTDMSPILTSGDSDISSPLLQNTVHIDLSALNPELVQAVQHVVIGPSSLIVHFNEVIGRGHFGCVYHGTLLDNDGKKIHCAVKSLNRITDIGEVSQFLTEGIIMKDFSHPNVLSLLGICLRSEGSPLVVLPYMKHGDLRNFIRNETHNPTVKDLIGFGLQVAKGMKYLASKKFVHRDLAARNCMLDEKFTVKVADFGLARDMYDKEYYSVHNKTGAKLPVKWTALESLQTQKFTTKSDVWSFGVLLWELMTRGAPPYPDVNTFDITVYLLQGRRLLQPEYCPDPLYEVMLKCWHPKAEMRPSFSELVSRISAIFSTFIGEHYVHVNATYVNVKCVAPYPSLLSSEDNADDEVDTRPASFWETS

Take `CN(c1ccnc(CNc2nc(Nc3ccc4c(c3)CC(=O)N4)ncc2C(F)(F)F)n1)S(C)(=O)=O` [PF-00911705]: the % of control in assay [1] amounted to 10%; in [2], 6.8%.
As for `CN1C(=O)c2sccc2N(C)c2nc(Nc3ccc(S(N)(=O)=O)cc3)ncc21`, the % of control in assay [3] came to 3.4%.
Turning to `CNC(=O)c1ccc(Nc2ncc(C(F)(F)F)c(NCc3nccnc3N(C)S(C)(=O)=O)n2)cc1` [DEFACTINIB], in [4], the % of control turned out to be 8.2%.
For the compound `CCOc1cn(-c2ccc(F)cc2C)nc1C(=O)Nc1ccc(Oc2ccnc3cc(OC)c(OC)cc23)c(F)c1`, the % of control in [5] and in assay [6] was less than 10% each time.
Turning to `C[C@H](c1ccnc(Nc2nc3ccc(-c4cc(N(C)C)ncn4)cc3[nH]2)c1)N1CCN(C(=O)CC(F)(F)F)CC1` [BAY-985], the % of control in assay [7] worked out at 8.5%.
Turning to `COc1cc2ncn(-c3cc(OCc4ccccc4C(F)(F)F)c(C(N)=O)s3)c2cc1OC` [GW843682X], the % of control in [8] was found to be 4.2%; in [9] it was 10%.
For `CC[C@@H]1C(=O)N(C)c2cnc(Nc3ccc(C(=O)NC4CCN(C)CC4)cc3OC)nc2N1C1CCCC1`, the % of control in assay [10] came out at 0.3%; in assay [11], 1.2%.
